Measurements: PubChem BioAssay (NCI)
Where “and” joins values, the source holds several entries; their conditions need not be identical. Equal values may be shown once.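 Method: 48-hour compound exposure of cells in 96-well plates, five concentrations, linear interpolation of endpoints. Here, GI50 denotes the concentration required for 50% inhibition of growth. TGI is the concentration that stops growth completely.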

Columns and labels:
Assay in all cases: NCI anticancer screen, dose series, 48 h
SK-MEL-28 melanoma = system: SK-MEL-28 melanoma
NCI-H522 lung = system: NCI-H522 lung
U251 CNS = system: U251 CNS
SF-539 CNS = system: SF-539 CNS
HT29 colon = system: HT29 colon
A549 NSCLC = system: A549 NSCLC
PC-3 prostate = system: PC-3 prostate
MDA-MB-231 breast = system: MDA-MB-231 breast
BT-549 breast = system: BT-549 breast
T-47D breast = system: T-47D breast

Row | SMILES | TGI (SK-MEL-28 melanoma) [µM] | TGI (NCI-H522 lung) | TGI (U251 CNS) | TGI (SF-539 CNS) | TGI (HT29 colon) | TGI (A549 NSCLC) [µM] | TGI (PC-3 prostate) | TGI (MDA-MB-231 breast) [µM] | TGI (BT-549 breast) [µM] | GI50 (PC-3 prostate) [µM] | GI50 (SK-MEL-28 melanoma) [µM] | GI50 (NCI-H522 lung) [µM] | GI50 (MDA-MB-231 breast) [µM] | GI50 (A549 NSCLC) | GI50 (U251 CNS) [µM] | GI50 (SF-539 CNS) [µM] | GI50 (BT-549 breast) [µM] | GI50 (HT29 colon) [µM] | GI50 (T-47D breast) [µM] | TGI (T-47D breast) [µM]
1 | CC1=CC(=O)c2c(C=O)c(O)c(O)c(C(C)C)c2C1=O | > 100 | 32.4 µM | 47.4 µM | 58.4 µM | – | – | – | – | – | – | – | – | – | – | – | – | – | – | – | –
2 | Cc1ccc(C(=O)C#Cc2c[nH]c(=O)[nH]c2=O)cc1 | 30.8 | – | 28.2 µM | 15.5 µM | 49.5 µM | 39.8 | – | – | – | – | – | – | – | – | – | – | – | – | – | –
3 | COc1cc(Nc2nc3cc(C(F)(F)F)ccc3nc2-c2ccccc2)cc(OC)c1OC | > 100 | 83.4 µM | > 100 µM | > 100 µM | > 100 µM | > 100 | – | – | – | – | – | – | – | – | – | – | – | – | – | –
4 | Cc1cc(=O)oc2c(OS(C)(=O)=O)c(OS(C)(=O)=O)ccc12 | > 100 | > 100 µM | > 100 µM | > 100 µM | > 100 µM | > 100 | > 100 µM | > 100 | > 100 | – | – | – | – | – | – | – | – | – | – | –
5 | Nc1ccc(-c2nc3ccccc3o2)cc1S | 58.8 | > 100 µM | 22.7 µM | 31.4 µM | – | 41.5 | 22.5 µM | 23.6 | 49.8 | 6.96 | 24.9 | 35.5 | 6.14 | 14.3 µM | 10.8 | 17.6 | 23.6 | – | – | –
6 | COC1=CC(c2ccc[nH]2)=N/C1=C\c1[nH]c(C)c(C(C)=O)c1C | > 100 | – | > 57.2 µM | 54.4 µM | > 100 µM | > 44.8 | > 100 µM | – | > 100 | 0.302 | 2.46 | 1.6 | – | 2.02 µM | 1.19 | 2.15 | 0.222 | 0.088 | 2.75 | 19.2
7 | Cc1ccc(NC2=C(Cl)C(=O)N(Cc3ccccc3)C2=O)cc1Cl | 29.3 | 15.4 µM | 15.9 µM | – | 36.6 µM | 18.8 | 8.84 µM | – | 14.9 | 1.99 | 12.9 | 2.97 | – | 5.74 µM | 3.75 | – | 1.68 | 14.3 | 4.3 | 25.3
8 | CCOC(=O)C(C(=O)OCC)=C1N[C@H](C(=O)OCC)CS1 | > 100 | > 100 µM | > 100 µM | > 100 µM | > 100 µM | > 100 | – | – | – | – | – | – | – | – | – | – | – | – | – | –
9 | COc1ccc(C(=O)CC(=O)C(=O)Nc2ccc(C)c(C)c2)cc1 | > 100 | > 100 µM | > 100 µM | > 100 µM | > 100 µM | > 100 | – | – | – | – | – | – | – | – | – | – | – | – | – | –
10 | O=C(O)c1cccc2cccc(C(=O)O)c12.[Hg] | 29.3 | 2.42 µM | 26.8 µM | – | 27.2 µM | 42.3 | – | – | – | – | 14.9 | 0.687 | – | 20.4 µM | 12.2 | – | – | 13.8 | – | –
11 | O=C1CC[C@H](c2ccc(O)c3c2C(=O)[C@@H]2O[C@@H]2C3=O)c2cccc(O)c21 | 3.62 | 3.33 µM | 25.2 µM | 5.46 µM | 6.3 µM | 40.9 | 7.22 µM | – | 6.42 | 2.52 | 1.83 | 1.72 | – | 16.4 µM | 11.6 | 2.42 | 2.38 | 2.33 | 1.27 | 3.81
12 | COc1ccc(-c2cc(-c3cc(C)ccc3O)[nH]c(=O)n2)cc1 | > 100 | 94 µM | > 100 µM | > 100 µM | > 100 µM | > 100 | – | – | – | – | – | – | – | – | – | – | – | – | – | –
13 | CCCc1nc(NC#N)nc(C(=O)NC23CC4CC(CC(C4)C2)C3)c1C | > 100 | > 100 µM | > 100 µM | > 100 µM | > 100 µM | > 100 | – | – | – | – | – | – | – | – | – | – | – | – | – | –
14 | NCCCNCCSSC/C=C\CSSCCNCCCN | > 100 | 42.5 µM and 24.7 µM | > 100 µM | > 100 µM | 31.4 µM and 27.5 µM | > 100 | – | – | – | – | – | – | – | > 100 µM and 46.8 µM | – | – | – | – | – | –
15 | Oc1ccc(-c2cn3cc(Cl)sc3n2)cc1 | – | > 100 µM | > 100 µM | > 100 µM | 78.8 µM | > 100 | 46.8 µM | > 100 | > 100 | 15.9 | – | 32.6 | > 100 | 30.8 µM | > 100 | > 100 | 32.1 | 24.2 | – | –
16 | CCC1CC(C)=CCN1S(=O)(=O)c1ccc(C)cc1 (stereo unspecified) | – | 46.4 µM | – | 39.8 µM | 39.3 µM | > 100 | – | – | – | – | – | – | – | – | – | – | – | – | – | –
17 | CC1OC(n2c3ccccc3c3c4c(c5c6ccccc6[nH]c5c32)C(=O)N(CCN2CCOCC2)C4=O)CC(O)C1O (stereo unspecified) | 13.8 | 11.1 µM | 7.19 µM | – | 9.91 µM | 10.4 | 11.4 µM | 18.9 | 12.1 | 3.55 | 5.61 | 1.52 | 6.63 | 2.51 µM | 1.24 | – | 2.83 | 1.92 | 1.37 | 10.4
18 | COc1ccc(NC(=O)CC(=O)N2N=C(N(CCC#N)c3cccc(C)c3)CC2c2ccccc2)cc1 (stereo unspecified) | > 100 | > 100 µM | > 100 µM | > 100 µM | > 100 µM | > 100 | – | – | – | – | – | – | – | – | – | – | – | – | – | –
19 | O=NN/C(=C1\Nc2ccc([N+](=O)[O-])cc2NC1=O)C(O)c1ccc([N+](=O)[O-])cc1 (stereo unspecified) | > 100 | > 100 µM | > 100 µM | > 100 µM | > 100 µM | > 100 | – | – | – | – | – | – | – | – | – | – | – | – | – | –
20 | COc1ccc(-c2nc(N3CCOCC3)c3sc(CN(C)c4ncc(C(=O)NO)cn4)cc3n2)cn1 | 0.136 | – | – | 0.161 µM | 0.0331 µM | 0.0625 | 0.112 µM | 0.331 | 0.15 | < 0.01 | 0.0129 | – | 0.0282 | < 0.01 µM | – | 0.0101 | 0.014 | < 0.01 | < 0.01 | 0.0332
21 | COC1=C2C[C@@H](C)C[C@@H](OC)[C@@H](O)[C@H](C)/C=C(\C)[C@@H](OC(N)=O)[C@H](OC)/C=C\C=C(/C)C(=O)NC(=CC1=O)C2=O | – | – | 6.51 µM and 19.4 µM and 4.2 µM | 9.47 µM and 12.2 µM and 2.68 µM | – | – | 8.01 µM and 5.58 µM and 14.9 µM | – | – | – | – | – | – | – | – | – | – | – | – | –
